Assays:
Type in all cases: cell-based
[1] = target: T1, EGFR-L858R/C797S (H1975-clone #8 cells) (Homo sapiens, UniProt P00533, C797S/L858R); assay: Cell degradation of EGFR, HTRF assay, H1975-clone#8 (L858R/C797S) cells; conditions: 16 h treatment; for DC50: EGFR degradation
T1 construct: expressed in transfected cells; host or cells: H1975 (endogenous EGFR knocked out, clone #8)
Protocol: (§1) The EGFR over-expressed cells then underwent knockout, in which the EGFR targeting sgRNA was designed to only target the endogenous EGFR copies and preserve the exogenous EGFR copies. Followed by the knockout, the edited H1975 cells were seeded in 96 well plates at the concentration of 1 cell/cell, cultured for about 2 weeks to allow single clones formation. The formed clones were screened by DNA sequencing and whole exon sequencing analysis for the desired edition.
(§2) H1975-#8 and BaF3-L858R cells are treated with compounds diluted in 0.1% DMSO cell culture medium on day 2, incubate for 16 h, 37° C., 5% CO2. the final concentration of compounds in all assay is start with 10 uM, 5-fold dilution, total 8 doses were included.
(§3) After 16 h treatment, for H1975-#8 cells, add 100 ul HTRF 1× lysis buffer to each well; for BaF3-L858R cells, add 20 μl 4× lysis buffer to each well; seal the plate and incubate 1 hour at room temperature on a plate shaker; Once the cells are lysed, 16 μL of cell lysate are transferred to a PE 384-well HTRF detection plate; 4 μL of pre-mixed HTRF antibodies are added to each well; Cover the plate with a plate sealer, spin 1000 rpm for 1 min, Incubate overnight at room temperature; Read on BMG PheraStar with HTRF protocol (337 nm-665 nm-620 nm).
(§4) High control=Cell group with added DMSO and without compound, indicating microplate readings without EGFR degradation;
(§5) Dmax is the maximum percentage of inhibition (degradation).
(§6) The IC50 (DC50) value of a compound can be obtained by fitting the following equation
(§7) Y=Bottom+(TOP−Bottom)/(1+((IC50/X)^hillslope))
(§8) Wherein, X and Y are known values, and IC50, Hillslope, Top and Bottom are the parameters obtained by fitting with software. […] The experimental data were fitted by calculating and analyzing with Dotmatics data analysis software.

[2] = target: T2, EGFR L858R (BaF3-L858R cells) (Homo sapiens, UniProt P00533, L858R); assay: Cell degradation of EGFR, HTRF assay, BaF3-L858R cells; conditions: 16 h treatment; for DC50: EGFR degradation
T2 construct: host or cells: BaF3
Protocol: (§9) BaF3-L858R (abbv. L858R) cell were purchased from Kangyuan Bochuang Biotechnology (Beijing) Co., Ltd.
as §2, §3, §4, §5, §6, §7, §8

[3] = target: p-EGFR Del19/C797S (H1975-clone #23 cells) (Homo sapiens, UniProt P00533); assay: Cell p-EGFR inhibition assay, HTRF, H1975-clone#23 (DEL19/C797S) cells; conditions: 16 h treatment
Protocol: as §1, with “cell/well,” for “cell/cell,”
(§10) H1975-#23 and BaF3-L858R cells are treated with compounds diluted in 0.1% DMSO cell culture medium on day 2, incubate for 16 h, 37° C., 5% CO2. the final concentration of compounds in all assay is start with 10 uM, 5-fold dilution, total 8 doses were included.
as §3, with “for H1975-#23” for “for H1975-#8”, “add 50” for “add 100”
(§11) High control=Cell group with added DMSO and without compound, indicating microplate readings without p-EGFR inhibited.
(§12) Imax is the maximum percentage of inhibition.
(§13) The IC50 value of a compound can be obtained by fitting the following equation.
as §8

[4] = target: T3, p-EGFR L858R (BaF3-L858R cells) (Homo sapiens, UniProt P00533, L858R); assay: Cell p-EGFR inhibition assay, HTRF, BaF3-L858R cells; conditions: 16 h treatment
T3 construct: host or cells: BaF3
Protocol: as §9, §10
as §3, with “for H1975-#23” for “for H1975-#8”, “add 50” for “add 100”
as §11, §12, §13, §8

[5] = maximum percentage of degradation
[6] = maximum percentage of pEGFR inhibition

DC50 [1] | DC50 [2] | Dmax [1, 5] | Dmax [2, 5] | Compound | Dmax (%) [1, 5] | Dmax (%) [2, 5] | Imax (%) [3, 6] | IC50 ([3]; pEGFR inhibition) | Imax (%) [4, 6] | IC50 ([4]; pEGFR inhibition)
1.4 nM | 0.307 nM | 65.5% | 91.5% | Cc1cc2cc(n1)-c1cnn(C)c1OC[C@H]1CC[C@H](C1)CN1/C(=N/C2=O)Nc2ccc(N3CCN([C@@H]4CCN(c5c(C)cc(C6CCC(=O)NC6=O)nc5C)C[C@@H]4F)CC3)cc21 (stereo partly drawn) [Example 13, 3-(5-((3S,4R)-4-(4-((7^1R,7^3S,E)-1^1,2^6-dimethyl-3-oxo-5^2,5^3-dihydro-1^1H,5^1H-9-oxa-4-aza-5(2,1)-benzo[d]imidazola-2(2,4)-pyridina-1(4,5)-pyrazola-7(1,3)-cyclopentanacyclononaphane-5^6-yl)piperazin-1-yl)-3-fluoropiperidin-1-yl)-4,6-dimethylpyridin-2-yl)piperidine-2,6-dione] | – | – | – | – | – | –
0.616 nM | 0.552 nM | 90.9% | 84% | Cc1cc2cc(n1)-c1cnn(C)c1OC[C@H]1CC[C@H](C1)CN1/C(=N/C2=O)Nc2ccc(N3CCN([C@@H]4CCN(c5cc(F)c(C6CCC(=O)NC6=O)nc5C)C[C@@H]4F)CC3)cc21 (stereo partly drawn) [Example 14, 3-(5-((3S,4R)-4-(4-((7^1R,7^3S,E)-1^1,2^6-dimethyl-3-oxo-5^2,5^3-dihydro-1^1H,5^1H-9-oxa-4-aza-5(2,1)-benzo[d]imidazola-2(2,4)-pyridina-1(4,5)-pyrazola-7(1,3)-cyclopentanacyclononaphane-5^6-yl)piperazin-1-yl)-3-fluoropiperidin-1-yl)-3-fluoro-6-methylpyridin-2-yl)piperidine-2,6-dione] | – | – | – | – | – | –
11.1 nM | 7.6 nM | 85.2% | 94.2% | Cc1cc2cc(n1)-c1cnn(C)c1OC[C@H]1CC[C@H](C1)CN1/C(=N/C2=O)Nc2ccc(N3CCN([C@H]4CCN(c5ccc(C6CCC(=O)NC6=O)nc5C)C[C@H]4F)CC3)cc21 (stereo partly drawn) [Example 15, 3-(5-((3R,4S)-4-(4-((7^1R,7^3S,E)-1^1,2^6-dimethyl-3-oxo-5^2,5^3-dihydro-1^1H,5^1H-9-oxa-4-aza-5(2,1)-benzo[d]imidazola-2(2,4)-pyridina-1(4,5)-pyrazola-7(1,3)-cyclopentanacyclononaphane-5^6-yl)piperazin-1-yl)-3-fluoropiperidin-1-yl)-6-methylpyridin-2-yl)piperidine-2,6-dione] | – | – | – | – | – | –
0.782 nM | 2.99 nM | 83.2% | 99% | Cc1cc2cc(n1)-c1cnn(C)c1OC[C@H]1CC[C@H](C1)CN1/C(=N/C2=O)Nc2ccc(N3CCN([C@@H]4CCN(c5cnc(C6CCC(=O)NC6=O)cc5C)C[C@@H]4F)CC3)cc21 (stereo partly drawn) [Example 21, 3-(5-((3S,4R)-4-(4-((7^1R,7^3S,E)-1^1,2^6-dimethyl-3-oxo-5^2,5^3-dihydro-1^1H,5^1H-9-oxa-4-aza-5(2,1)-benzo[d]imidazola-2(2,4)-pyridina-1(4,5)-pyrazola-7(1,3)-cyclopentanacyclononaphane-5^6-yl)piperazin-1-yl)-3-fluoropiperidin-1-yl)-4-methylpyridin-2-yl)piperidine-2,6-dione] | – | – | – | – | – | –
0.608 nM | 12.8 nM | 55% | 86% | Cc1cc2cc(n1)-c1cnn(C)c1OC[C@H]1CC[C@H](C1)CN1/C(=N/C2=O)Nc2ccc(N3CCN(CC4CCN(c5ccc(C6CCC(=O)NC6=O)nc5C)CC4)CC3)cc21 (some centres unmarked) [Example 23, 3-(5-(4-((4-((7^1R,7^3S,E)-1^1,2^6-dimethyl-3-oxo-5^2,5^3-dihydro-1^1H,5^1H-9-oxa-4-aza-5(2,1)-benzo[d]imidazola-2(2,4)-pyridina-1(4,5)-pyrazola-7(1,3)-cyclopentanacyclononaphane-5^6-yl)piperazin-1-yl)methyl)piperidin-1-yl)-6-methylpyridin-2-yl)piperidine-2,6-dione] | – | – | – | – | – | –
3.19 nM | 1.75 nM | 90.2% | 91.1% | Cc1cc2cc(n1)-c1cnn(C)c1OC[C@H]1CC[C@H](C1)CN1/C(=N/C2=O)Nc2ccc(N3CCN([C@H]4CCN(c5cc(F)c(C6CCC(=O)NC6=O)nc5C)C[C@H]4F)CC3)cc21 (stereo partly drawn) [Example 27, 3-(5-((3R,4S)-4-(4-((7^1R,7^3S,E)-1^1,2^6-dimethyl-3-oxo-5^2,5^3-dihydro-1^1H,5^1H-9-oxa-4-aza-5(2,1)-benzo[d]imidazola-2(2,4)-pyridina-1(4,5)-pyrazola-7(1,3)-cyclopentanacyclononaphane-5^6-yl)piperazin-1-yl)-3-fluoropiperidin-1-yl)-3-fluoro-6-methylpyridin-2-yl)piperidine-2,6-dione] | – | – | – | – | – | –
1.45 nM | 16.2 nM | 69.3% | 71.9% | Cc1cc2cc(n1)-c1cnn(CCO)c1OC[C@H]1CCC(C1)CN1/C(=N/C2=O)Nc2ccc(N3CCC(N4CCC(Nc5cc(F)c([C@H]6CCC(=O)NC6=O)c(F)c5)CC4)CC3)cc21 [Example 129, (R)-3-(2,6-difluoro-4-((1′-((7^1R,7^3S,E)-1^1-(2-hydroxyethyl)-2^6-methyl-3-oxo-5^2,5^3-dihydro-1^1H,5^1H-9-oxa-4-aza-5(2,1)-benzo[d]imidazola-2(2,4)-pyridina-1(4,5)-pyrazola-7(1,3)-cyclopentanacyclononaphane-5^6-yl)-[1,4′-bipiperidin]-4-yl)amino)phenyl)piperidine-2,6-dione] | – | – | – | – | – | –
2.02 nM | 1.04 nM | 63.2% | 87.6% | COC[C@@H]1CN(c2ccc3c(c2)N2C[C@@H]4CC[C@H](COc5c(c(C)nn5C)-c5cc(cc(C)n5)C(=O)/N=C/2N3)C4)CCN1C1CCN(c2c(C)cc(C3CCC(=O)NC3=O)nc2C)CC1 (stereo partly drawn) [Example 147, 3-(5-(4-((S)-2-(methoxymethyl)-4-((7^1R,7^3S,E)-1^1,1^3,2^6-trimethyl-3-oxo-5^2,5^3-dihydro-1^1H,5^1H-9-oxa-4-aza-5(2,1)-benzo[d]imidazola-2(2,4)-pyridina-1(4,5)-pyrazola-7(1,3)-cyclopentanacyclononaphane-5^6-yl)piperazin-1-yl)piperidin-1-yl)-4,6-dimethylpyridin-2-yl)piperidine-2,6-dione] | – | – | – | – | – | –
3.75 nM | 9.56 nM | 81.3% | 77.5% | COC[C@H]1CN(c2ccc3c(c2)N2C[C@@H]4CC[C@H](COc5c(c(C)nn5C)-c5cc(cc(C)n5)C(=O)/N=C/2N3)C4)CCN1C1CCN(c2c(C)cc(NC3CCC(=O)NC3=O)nc2C)CC1 (stereo partly drawn) [Example 159, 3-((5-(4-((R)-2-(methoxymethyl)-4-((7^1R,7^3S,E)-1^1,1^3,2^6-trimethyl-3-oxo-5^2,5^3-dihydro-1^1H,5^1H-9-oxa-4-aza-5(2,1)-benzo[d]imidazola-2(2,4)-pyridina-1(4,5)-pyrazola-7(1,3)-cyclopentanacyclononaphane-5^6-yl)piperazin-1-yl)piperidin-1-yl)-4,6-dimethylpyridin-2-yl)amino)piperidine-2,6-dione] | – | – | – | – | – | –

Compound | DC50 [1] | DC50 [2] | Dmax [1, 5] | Dmax [2, 5] | Dmax (%) [1, 5] | Dmax (%) [2, 5] | Imax (%) [3, 6] | IC50 ([3]; pEGFR inhibition) | Imax (%) [4, 6] | IC50 ([4]; pEGFR inhibition)
3-(5-(4-((S)-4-((7^1R,7^3S,E)-1^1,2^6-dimethyl-3-oxo-5^2,5^3-dihydro-1^1H,5^1H-9-oxa-4-aza-5(2,1)-benzo[d]imidazola-2(2,4)-pyridina-1(4,5)-pyrazola-7(1,3)-cyclopentanacyclononaphane-5^6-yl)-2-methylpiperazin-1-yl)piperidin-1-yl)-6-methylpyridin-2-yl)piperidine-2,6-dione [Example 214] | 0.61 nM | 0.65 nM | – | – | 77.32% | 82.61% | 100.03% | 0.604 nM | 100.54% | 3.32 nM

Reference: patent US20240425523A1, “Compounds for the Degradation of EGFR Kinase” (Beigene Switzerland GMBH, priority 2023, published 2024)
